From patent US9732075B2, “Benzimidazole-proline derivatives” (IDORSIA PHARMACEUTICALS LTD, priority 2012, dated 2017) come the findings set out here.

One may read the IC50 as the concentration needed to halve the response being measured.

The target in one assay is human orexin-1 receptor (Homo sapiens (Human), UniProt O43613). Nature of the assay: In vitro assay: intracellular calcium measurements (FLIPR), antagonistic activity. Format: cell-based. Particulars: CHO cells expressing human orexin-1 receptor, orexin-A agonist, geometric mean, read-out: IC50 Ox1. The procedure, abridged:
(§1)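 Read-out: FLIPR fluo-4 calcium peak height in CHO cells bearing human orexin-1 or orexin-2 receptor, relative to orexin-A (approx. EC70) with vehicle. Antagonist preincubation 120 min; agonist orexin-A at 3 nM final. IC50 possibly normalized to an on-plate reference compound.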
(Calcium assays in cells follow changes in intracellular calcium, usually with a dye or a luminescent sensor.)

The next assay has as its target human orexin-2 receptor (Homo sapiens (Human), UniProt O43614). The description is as above. The assay is classed as cell-based. As to conditions: CHO cells expressing human orexin-2 receptor, orexin-A agonist, geometric mean, read-out: IC50 Ox2. The procedure, abridged: as §1

Chain of human orexin-2 receptor (O43614 whole entry): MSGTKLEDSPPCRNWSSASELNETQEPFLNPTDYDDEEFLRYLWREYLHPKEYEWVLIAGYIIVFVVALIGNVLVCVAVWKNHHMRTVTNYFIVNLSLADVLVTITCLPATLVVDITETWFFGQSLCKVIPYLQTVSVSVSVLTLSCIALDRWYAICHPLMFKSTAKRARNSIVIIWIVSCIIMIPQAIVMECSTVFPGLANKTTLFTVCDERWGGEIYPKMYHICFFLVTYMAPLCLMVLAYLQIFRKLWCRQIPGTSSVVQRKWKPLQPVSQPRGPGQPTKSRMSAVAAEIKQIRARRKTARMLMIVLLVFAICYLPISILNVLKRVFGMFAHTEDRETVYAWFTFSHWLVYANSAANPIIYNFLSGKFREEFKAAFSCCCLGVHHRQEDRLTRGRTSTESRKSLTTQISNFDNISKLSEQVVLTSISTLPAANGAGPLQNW
Chain of human orexin-1 receptor (O43613 whole entry): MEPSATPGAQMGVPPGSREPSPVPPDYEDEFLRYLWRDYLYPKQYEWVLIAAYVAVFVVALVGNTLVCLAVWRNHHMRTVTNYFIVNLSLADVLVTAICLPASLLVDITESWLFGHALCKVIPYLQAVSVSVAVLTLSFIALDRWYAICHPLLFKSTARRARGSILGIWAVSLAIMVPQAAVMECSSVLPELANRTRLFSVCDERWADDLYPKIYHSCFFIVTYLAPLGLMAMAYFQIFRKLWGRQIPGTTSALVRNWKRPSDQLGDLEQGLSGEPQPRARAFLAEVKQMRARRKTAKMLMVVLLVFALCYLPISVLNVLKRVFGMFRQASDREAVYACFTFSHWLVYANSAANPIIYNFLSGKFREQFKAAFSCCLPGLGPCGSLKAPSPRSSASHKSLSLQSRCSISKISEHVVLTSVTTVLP

Regarding `C=C1CN(C(=O)c2cc(C)ccc2-n2nccn2)C(C)(c2nc3cc(OC)ccc3[nH]2)C1` (stereo not shown) [Ex. 6.156], the IC50 at human orexin-1 receptor was 34 nM; on human orexin-2 receptor, 12 nM.
For `C=C1CN(C(=O)c2cc(Cl)ccc2-n2nccn2)C(C)(c2nc3cc(OC)ccc3[nH]2)C1` (stereo not shown) [Ex. 6.157], the IC50 amounted to 70 nM on human orexin-1 receptor and 21 nM at human orexin-2 receptor.
Consider `C=C1CN(C(=O)c2cc(OC)ccc2-n2nccn2)C(C)(c2nc3cc(OC)ccc3[nH]2)C1` (stereo not shown) [Ex. 6.158], for which the half-inhibitory concentration (IC50) stood at 57 nM on human orexin-1 receptor and 35 nM at human orexin-2 receptor.
For the compound `C=C1CN(C(=O)c2cc(C)c(C)cc2-n2nccn2)C(C)(c2nc3cc(OC)ccc3[nH]2)C1` (stereo not shown) [Ex. 6.159], the IC50 is 11 nM on human orexin-1 receptor and 10 nM at human orexin-2 receptor.
As to `C=C1C[C@@H](c2nc3cc(C(C)(C)C)ccc3[nH]2)N(C(=O)c2cc(F)ccc2-n2nccn2)C1` [Ex. 6.160], the IC50 at human orexin-1 receptor stood at 326 nM; on human orexin-2 receptor, 8 nM.
Regarding `C=C1C[C@@H](c2nc3cc(C(C)(C)C)ccc3[nH]2)N(C(=O)c2cc(Cl)ccc2-n2nccn2)C1` [Ex. 6.161], the values for the IC50 on human orexin-1 receptor and on human orexin-2 receptor were 51 nM and 3 nM, respectively.
For the compound `C=C1C[C@@H](c2nc3cc(C(C)(C)C)ccc3[nH]2)N(C(=O)c2ccccc2-n2nccn2)C1` [Ex. 6.162], the results for the IC50 on human orexin-1 receptor and at human orexin-2 receptor were 330 nM and 7 nM, respectively.
With `C=C1C[C@@H](c2nc3cc(C(C)(C)C)ccc3[nH]2)N(C(=O)c2c(-n3nccn3)ccc(OC)c2F)C1` [Ex. 6.163], the values for the IC50 at human orexin-1 receptor and on human orexin-2 receptor were 259 nM and 72 nM, respectively.
Regarding `C=C1C[C@@H](c2nc3cc(C(C)(C)C)ccc3[nH]2)N(C(=O)c2c(-n3nccn3)ccc(C)c2F)C1` [Ex. 6.164], the half-maximal inhibitory concentration (IC50) amounted to 100 nM at human orexin-1 receptor and 9 nM on human orexin-2 receptor.
Regarding `C=C1C[C@@H](c2nc3cc(C(C)(C)C)ccc3[nH]2)N(C(=O)c2cc(C)c(C)cc2-n2nccn2)C1` [Ex. 6.165], the values for the IC50 on human orexin-1 receptor and on human orexin-2 receptor were 9 nM and 3 nM, respectively.
Regarding `C=C1C[C@@H](c2nc3cc(C(C)(C)C)ccc3[nH]2)N(C(=O)c2ccc(C)cc2-n2nccn2)C1` [Ex. 6.166], the half-inhibitory concentration (IC50) at human orexin-1 receptor came to 33 nM; at human orexin-2 receptor, 4 nM.
For `C=C1C[C@@H](c2nc3cc(C(C)(C)C)ccc3[nH]2)N(C(=O)c2c(C)cccc2-n2nccn2)C1` [Ex. 6.167] the same measures were 573 nM and 25 nM.
With `C=C1C[C@@H](c2nc3cc(C(C)(C)C)ccc3[nH]2)N(C(=O)c2cc(C(F)(F)F)ccc2-n2nccn2)C1` [Ex. 6.168], the 50% inhibitory concentration (IC50) on human orexin-1 receptor amounted to 261 nM; at human orexin-2 receptor, 54 nM.
The matching figures for `C=C1C[C@@H](c2nc3cc(C(C)(C)C)ccc3[nH]2)N(C(=O)c2cc(OC(F)(F)F)ccc2-n2nccn2)C1` [Ex. 6.169]: 344 nM and 479 nM.
As to `C=C1C[C@@H](c2nc3cc(C(C)(C)C)ccc3[nH]2)N(C(=O)c2cc(OC)c(OC)cc2-n2nccn2)C1` [Ex. 6.170], the IC50 on human orexin-1 receptor came to 18 nM; at human orexin-2 receptor it was 15 nM.
The matching figures for `C=C1C[C@@H](c2nc3cc(C(C)(C)C)ccc3[nH]2)N(C(=O)c2cc(C)ccc2-n2cccn2)C1` [Ex. 6.171]: 162 nM and 19 nM.
With `C=C1C[C@@H](c2nc3cc(C(C)(C)C)ccc3[nH]2)N(C(=O)c2ccccc2-n2cccn2)C1` [Ex. 6.172], the half-inhibitory concentration (IC50) was determined as 1260 nM at human orexin-1 receptor and 67 nM on human orexin-2 receptor.
For `C=C1C[C@@H](c2nc3cc(C(C)(C)C)ccc3[nH]2)N(C(=O)c2nc(C)ccc2-n2cccn2)C1` [Ex. 6.173], the IC50 on human orexin-1 receptor came to 842 nM; at human orexin-2 receptor, 64 nM.
In the case of `C=C1C[C@@H](c2nc3cc(C(C)(C)C)ccc3[nH]2)N(C(=O)c2nc(C)ccc2-n2nccn2)C1` [Ex. 6.174], the figures for the IC50 at human orexin-1 receptor and at human orexin-2 receptor were 233 nM and 15 nM, respectively.
On to `C=C1C[C@@H](c2nc3cc(Cl)c(C(F)(F)F)cc3[nH]2)N(C(=O)c2c(F)cccc2-n2nccn2)C1` [Ex. 6.175], for which the half-maximal inhibitory concentration (IC50) at human orexin-1 receptor was 77 nM; on human orexin-2 receptor, 19 nM.
For `C=C1C[C@@H](c2nc3cc(Cl)c(C(F)(F)F)cc3[nH]2)N(C(=O)c2cc(F)ccc2-n2nccn2)C1` [Ex. 6.176], the half-inhibitory concentration (IC50) at human orexin-1 receptor was found to be 58 nM; at human orexin-2 receptor, 18 nM.
With `C=C1C[C@@H](c2nc3cc(Cl)c(C(F)(F)F)cc3[nH]2)N(C(=O)c2cc(Cl)ccc2-n2nccn2)C1` [Ex. 6.177], the concentration for half-maximal inhibition (IC50) on human orexin-1 receptor came out at 13 nM; at human orexin-2 receptor, 6 nM.
The matching figures for `C=C1C[C@@H](c2nc3cc(Cl)c(C(F)(F)F)cc3[nH]2)N(C(=O)c2ccccc2-n2nccn2)C1` [Ex. 6.178]: 44 nM and 10 nM.
For the compound `C=C1C[C@@H](c2nc3cc(Cl)c(C(F)(F)F)cc3[nH]2)N(C(=O)c2c(-n3nccn3)ccc(OC)c2F)C1` [Ex. 6.179], the values for the IC50 at human orexin-1 receptor and on human orexin-2 receptor were 6 nM and 7 nM, respectively.
With `C=C1C[C@@H](c2nc3cc(Cl)c(C(F)(F)F)cc3[nH]2)N(C(=O)c2c(-n3nccn3)ccc(C)c2F)C1` [Ex. 6.180], the IC50 at human orexin-1 receptor came to 5 nM; on human orexin-2 receptor, 4 nM.
The matching figures for `C=C1C[C@@H](c2nc3cc(Cl)c(C(F)(F)F)cc3[nH]2)N(C(=O)c2cc(C)c(C)cc2-n2nccn2)C1` [Ex. 6.181]: 2 nM and 2 nM.
Regarding `C=C1C[C@@H](c2nc3cc(Cl)c(C(F)(F)F)cc3[nH]2)N(C(=O)c2ccc(C)cc2-n2nccn2)C1` [Ex. 6.182], the IC50 on human orexin-1 receptor is 12 nM; at human orexin-2 receptor, 6 nM.
On to `C=C1C[C@@H](c2nc3cc(Cl)c(C(F)(F)F)cc3[nH]2)N(C(=O)c2c(C)cccc2-n2nccn2)C1` [Ex. 6.183], for which the values for the IC50 on human orexin-1 receptor and at human orexin-2 receptor were 127 nM and 21 nM, respectively.
Turning to `C=C1C[C@@H](c2nc3cc(Cl)c(C(F)(F)F)cc3[nH]2)N(C(=O)c2cc(C(F)(F)F)ccc2-n2nccn2)C1` [Ex. 6.184], the IC50 was 67 nM on human orexin-1 receptor and 73 nM at human orexin-2 receptor.
The matching figures for `C=C1C[C@@H](c2nc3cc(Cl)c(C(F)(F)F)cc3[nH]2)N(C(=O)c2cc(OC(F)(F)F)ccc2-n2nccn2)C1` [Ex. 6.185]: 239 nM and 103 nM.
`C=C1C[C@@H](c2nc3cc(Cl)c(C(F)(F)F)cc3[nH]2)N(C(=O)c2cc(OC)c(OC)cc2-n2nccn2)C1` [Ex. 6.186]: the IC50 on human orexin-1 receptor came to 27 nM; at human orexin-2 receptor it was 6 nM.
For `C=C1C[C@@H](c2nc3cc(Cl)c(C(F)(F)F)cc3[nH]2)N(C(=O)c2cc(C)ccc2-n2cccn2)C1` [Ex. 6.187] the same measures were 24 nM and 15 nM.
In the case of `C=C1C[C@@H](c2nc3cc(Cl)c(C(F)(F)F)cc3[nH]2)N(C(=O)c2ccccc2-n2cccn2)C1` [Ex. 6.188], the concentration for half-maximal inhibition (IC50) on human orexin-1 receptor turned out to be 115 nM; on human orexin-2 receptor it was 66 nM.
With `C=C1C[C@@H](c2nc3cc(Cl)c(C(F)(F)F)cc3[nH]2)N(C(=O)c2nc(C)ccc2-n2cccn2)C1` [Ex. 6.189], the IC50 on human orexin-1 receptor was found to be 47 nM; at human orexin-2 receptor, 25 nM.
`C=C1C[C@@H](c2nc3cc(Cl)c(C(F)(F)F)cc3[nH]2)N(C(=O)c2nc(C)ccc2-n2nccn2)C1` [Ex. 6.190]: the IC50 amounted to 10 nM on human orexin-1 receptor and 9 nM at human orexin-2 receptor.
As to `C=C1C[C@@H](c2nc3cc(C)c(C)cc3[nH]2)N(C(=O)c2c(F)cccc2-n2nccn2)C1` [Ex. 6.191], the figures for the IC50 at human orexin-1 receptor and on human orexin-2 receptor were 134 nM and 7 nM, respectively.
The matching figures for `C=C1C[C@@H](c2nc3cc(C)c(C)cc3[nH]2)N(C(=O)c2cc(F)ccc2-n2nccn2)C1` [Ex. 6.192]: 48 nM and 7 nM.
As for `C=C1C[C@@H](c2nc3cc(C)c(C)cc3[nH]2)N(C(=O)c2cc(Cl)ccc2-n2nccn2)C1` [Ex. 6.193], the IC50 at human orexin-1 receptor was found to be 41 nM; at human orexin-2 receptor, 4 nM.
Regarding `C=C1C[C@@H](c2nc3cc(C)c(C)cc3[nH]2)N(C(=O)c2ccccc2-n2nccn2)C1` [Ex. 6.194], the 50% inhibitory concentration (IC50) was 51 nM at human orexin-1 receptor and 5 nM on human orexin-2 receptor.
For `C=C1C[C@@H](c2nc3cc(C)c(C)cc3[nH]2)N(C(=O)c2c(-n3nccn3)ccc(OC)c2F)C1` [Ex. 6.195], the half-inhibitory concentration (IC50) at human orexin-1 receptor is 43 nM; at human orexin-2 receptor, 11 nM.
With `C=C1C[C@@H](c2nc3cc(C)c(C)cc3[nH]2)N(C(=O)c2c(-n3nccn3)ccc(C)c2F)C1` [Ex. 6.196], the IC50 on human orexin-1 receptor is 59 nM; on human orexin-2 receptor, 12 nM.
The matching figures for `C=C1C[C@@H](c2nc3cc(C)c(C)cc3[nH]2)N(C(=O)c2cc(C)c(C)cc2-n2nccn2)C1` [Ex. 6.197]: 6 nM and 2 nM.
Take `C=C1C[C@@H](c2nc3cc(C)c(C)cc3[nH]2)N(C(=O)c2ccc(C)cc2-n2nccn2)C1` [Ex. 6.198]: the results for the half-maximal inhibitory concentration (IC50) at human orexin-1 receptor and on human orexin-2 receptor were 12 nM and 3 nM, respectively.
Regarding `C=C1C[C@@H](c2nc3cc(C)c(C)cc3[nH]2)N(C(=O)c2c(C)cccc2-n2nccn2)C1` [Ex. 6.199], the IC50 on human orexin-1 receptor was 143 nM; on human orexin-2 receptor, 6 nM.
Take `C=C1C[C@@H](c2nc3cc(C)c(C)cc3[nH]2)N(C(=O)c2cc(OC)c(OC)cc2-n2nccn2)C1` [Ex. 6.200]: the 50% inhibitory concentration (IC50) was found to be 58 nM on human orexin-1 receptor and 10 nM at human orexin-2 receptor.
With `C=C1C[C@@H](c2nc3cc(C)c(C)cc3[nH]2)N(C(=O)c2cc(C)ccc2-n2cccn2)C1` [Ex. 6.201], the values for the 50% inhibitory concentration (IC50) at human orexin-1 receptor and at human orexin-2 receptor were 148 nM and 25 nM, respectively.
Take `C=C1C[C@@H](c2nc3cc(C)c(C)cc3[nH]2)N(C(=O)c2nc(C)ccc2-n2nccn2)C1` [Ex. 6.202]: the figures for the IC50 at human orexin-1 receptor and at human orexin-2 receptor were 89 nM and 13 nM, respectively.
In the case of `COc1ccc(-n2nccn2)c(C(=O)N2C[C@H](OC)C[C@H]2c2nc3ccc(Cl)c(C)c3n2C)c1` [Ex. 7.1], the 50% inhibitory concentration (IC50) stood at 16 nM at human orexin-1 receptor and 162 nM at human orexin-2 receptor.
On to `C=C1C[C@@H](c2nc3cc(C)c(C)cc3n2C)N(C(=O)c2cc(C)ccc2-n2nccn2)C1` [Ex. 7.2], for which the half-inhibitory concentration (IC50) at human orexin-1 receptor was found to be 420 nM; at human orexin-2 receptor it was 69 nM.
The matching figures for `Cc1ccc(-n2nccn2)c(C(=O)N2CCC[C@@]2(C)c2nc3c(C)c(Cl)ccc3n2C)c1` [Ex. 7.3]: 1 nM and 3 nM.
